# “Also recorded” adds a separate entry of the source. Peptide text beside a SMILES is read from it. * marks the point of attachment. Cbz = O=C(OCc1ccccc1)*
# Assays:
# MCF10A cells [1] = experiment: Apoptosis / cell death in MCF10A cells (PARP cleavage); assay type: cell-based, human; conditions: for cell death: 24 h, TRAIL 1 μg/mL, CHX 30 μg/mL, DOX 3 μg/mL, not shown; for apoptosis as assessed by PARP cleavage: 24 hours
# Procedure: (§1) FIG. 1A relates to human mammary epithelial cells (MCF10A) grown for 24 h in the presence or absence of a proteasomal inhibitor (MG132, 5 μM). […] Lysates from Ramos cells are included as a positive control for Bik and parallel blotting for β-actin confirm equivalent levels of protein. FIG. 1B relates to Bik protein increases after forced cell rounding with the actin polymerization inhibitor, Latrunculin-A (LA, 5 μM for 24 h). Bik protein is low in standard growth media (GROW). […] Cell rounding may therefore act selectively to upregulate Bik rather than through a nonspecific apoptotic signal.
# (§2) Several apoptotic stimuli were tested for their ability to induce Bik expression in MCF10A cells were evaluated (FIG. 7A). Compared to a Ramos positive control lysate, MCF10A cells express very low levels of Bik under normal growth conditions. […] Bik expression in MCF10A cells increased after treatment with Latrunculin-A (LA), an inhibitor of the actin cytoskeleton that causes cell rounding (Martin et al., Mol. Cell. Biol., 21:6529-6536 (2001)). Apoptosis caused by cell rounding and cytoskeletal disruption has been termed amorphosis (Martin et al., Biochim. Biophys. Acta., 1692:145-157 (2004)), and resistance to amorphosis is thought to contribute to metastatic potential by allowing tumor cells to tolerate the cell shape changes that occur during bloodborne dissemination (Martin et al., Oncogene, 23:4641-4645 (2004); Mehlen et al., Nat. Rev. Cancer, 6:449-458 (2006); Pinkas et al., Mol. Cancer. Res., 2:551-556 (2004)). […] Since Bik is induced by cell rounding, its loss in tumors may reduce their apoptotic sensitivity and yield a greater metastatic potential. In fact, reduced expression of Bik predicts increased nodal involvement in colorectal cancer (Bandres et al., Oncol. Rep., 12:287-292 (2004)). Conversely, forced expression of Bik inhibits systemic breast tumor growth (Zou et al., Cancer Res., 62:8-12 (2002)).
# Bik protein [2] = experiment: Western blotting of Bik protein in MCF10A cells; assay type: cell-based, human; conditions: 24 h
# Procedure: as §1
# (§3) FIG. 6 illustrates Bik protein is degraded by the proteasome but remains reduced in tumor cell lines. Protein lysates from control cells (Ramos), nontumorigenic human mammary epithelial cells (MCF10A) or 11 human breast tumor cell lines were immunoblotted for Bik and b-actin as a loading control. […] Bik protein remained low in the tumor cell lines, even in the presence of MG132.
# (§4) FIG. 7 illustrates tumor lines with reduced Bik resist apoptosis by cytoskeletal disruption.
# (§5) Bik values were normalized to amplification of GAPDH, which was highly consistent in all cell lines and dissociation curves confirmed specificity with a single major amplification product in each reaction type (FIG. 5B). Despite the detectable levels of mRNA, Bik protein levels were very low in the tumor lines and MCF10A cells under normal growth conditions. Since Bik can be degraded by the proteasome (Zhu et al., Oncogene, 24:4993-4999 (2005)), cells were treated with MG132 to inhibit the proteasome and increase detectable Bik levels (FIG. 6). […] Downregulation of Bik in MDA-MB-453 cells therefore occurs independently from mRNA expression. However, loss of Bik function as a common event in breast tumors continues to be supported by these finding.
# as §2
# BCRP protein [3] = experiment: Western blotting of BCRP in MCF10A cells; assay type: cell-based, human; conditions: LA 5 μM, 24 h, rounded
# Procedure: (§6) FIG. 12 illustrates cell rounding also upregulates the BCRP drug resistance protein. […] MCF10A mammary epithelial cells or MCF-7 and Bt-474 breast tumor cells were grown for 24 h in standard media (Control), serum-free conditions (DMEM) or forced cell rounding through inhibition of actin polymerization with Latrunculin-A (LA, 5 μM—Rounded). […] Levels of actin remain constant.
# BCRP protein [4] = experiment: Western blotting of BCRP in Bt-474 cells; assay type: cell-based, human; conditions: LA 5 μM, 24 h, rounded
# Procedure: as §6
# Bik protein [5] = experiment: Western blotting of Bik protein in MCF10A cells stably expressing Bcl-xL; assay type: cell-based, human; conditions: forced cell rounding, LA 5 μM, 24 h
# Excerpt: (§7) MCF10A or MCF-7 cells show comparably low levels of Bik. […] This increase in Bik is so strong that the moderate increases observed with LA in MCF10A cells (FIG. 7B) cannot even be detected here due to the short exposure times necessary to prevent oversaturating signal.
# (§8) FIG. 15 illustrates apoptotically-resistant cell accumulate high levels of Bik when rounded. […] This increase in Bik is so strong that the moderate increases observed with LA in MCF10A cells (FIG. 7A) cannot even be detected here due to the short exposure times necessary to prevent oversaturating signal.
# breast tumor cell lines = experiment: Cell viability assay (XTT), breast tumor cell lines; assay type: cell-based, human; conditions: tumor cell lines with reduced Bik; up to very high doses, 5 μM LA; listed as LA
# Procedure: as §4
# as §2, with “Conversely, forced expression of Bik inhibits systemic breast tumor growth (Zou et al., Cancer Res., 62:8-12 (2002)).” left out
# Bik protein [6] = experiment: Western blotting of Bik protein in MCF10A cells stably expressing Bcl-2; assay type: cell-based, human; conditions: forced cell rounding, LA 5 μM, 24 h
# Excerpt: as §7, §8
# [7] = system: MCF10A cells stably expressing Bcl-2 (10A-Bcl2); experiment: Cell viability assay (XTT), 10A-Bcl2 cells; assay type: cell-based
# Procedure: Viability was measured with XTT and each point represents the mean+/−S.D. for triplicate samples.
# BCRP protein [8] = experiment: Western blotting of BCRP in MCF-7 cells; assay type: cell-based, human; conditions: LA 5 μM, 24 h, rounded
# Procedure: as §6
# [9] = system: MCF10A cells stably expressing Bcl-xL; experiment: Cell viability assay (XTT), MCF10A cells expressing Bcl-xL; assay type: cell-based, human
# Procedure: (§9) FIG. 13 illustrates cells expressing the survival proteins Bcl-2 or Bcl-xL are highly resistant to cell death induced by cell rounding (LA). […] Nearly 60% of cells overexpressing Bcl-xL remain viable even at concentrations of LA as high as 20 μM. […] Viability was measured with XTT and each point represents the mean+/−S.D. for triplicate samples.
# MCF10A cells [10] = assay type: cell-based
# Procedure: as §4, §9
# FIG. 19 illustrates that YC137 remains toxic to normal cells (MCF10A). […] Such compounds would not be expected to be effective therapies due to likely side effects on normal tissues. If compounds were only toxic to rounded cells, that would be acceptable, since normal tissues are attached and not rounded.
# as §2
# Bik protein [11] = experiment: Immunoblot of Bik protein in 11 human breast tumor cell lines; assay type: cell-based; conditions: +MG132 5 μM, 24 h; compared with MCF10A
# Excerpt: as §3, §5
# [12] = system: tubulin microtentacles of MDA-436 cells; experiment: DIC imaging of tubulin microtentacles in detached breast tumor cells; assay type: cell-based; conditions: tetracaine 100 μM
# Procedure: (§10) FIG. 23 illustrates methods used to image circulating tumor cells and microtentacles. Surgically-isolated blood vessels from mice are sutured to the ends of glass micropipettes to allow solution flow through the vessels. After endothelial labeling with Fluo-4 (green), MDA-436 breast tumor cells, stained with QDot-655 (red), were injected and allowed to circulate through the vessel. […] In the right panel the effects of microtentacle inhibitors are imaged with DIC microscopy. Detachment of vimentin-expressing breast tumor cell lines, like MDA-231 and MDA-436 (pictured, FIG. 23 D), stimulates the formation of rapidly-moving tubulin microtentacles (Whipple et al., “Vimentin filaments support extension of tubulin-based microtentacles in detached breast tumor cells”, Cancer Research, (2008), (under revision)). We added the kinesin inhibitor, tetracaine (100 μM) (Miyamoto et al., Biophys. J., 78:940-949 (2000)) and collected DIC images every 30 seconds (Yoon et al., “Microtentacles in detached breast tumor cells require kinesin motor activity”, manuscript in preparation (2008)). After approximately 10 minutes, tubulin microtentacles collapse dramatically (FIG. 23 E). This concentration of drug is non-toxic to these cells, even after 24 hours.
# MDA-436 cells = experiment: Toxicity of microtentacle inhibitors to breast tumor cells; assay type: cell-based; conditions: 100 μM, even after 24 hours
# Procedure: as §10
# [13] = system: Bax- and Bak-deficient MEFs (DKO); conditions: cited from earlier work
# [14] = LA 5 μM, TRAIL 1 μg/mL, CHX 30 μg/mL, DOX 3 μg/mL
# [15] = LA 24 h, versus parental MCF10A
molecule,measurement,setting,value
C[C@@H]1C[C@@H]([C@H](O)CC2CC(=O)NC(=O)C2)C(=O)[C@@H](C)C1 [Cycloheximide],cell death,MCF10A cells [1],causes cell death comparable to LA
same,apoptosis as assessed by PARP cleavage,MCF10A cells [1],does induce apoptosis
same,Bik protein (Western blotting),Bik protein [2]; [14],do not increase Bik levels
same,Bik protein (Western blotting),"Bik protein [2]; LA 5 μM, TRAIL 1 μg/mL, CHX 30 μg/mL, DOX 3 μg/mL, listed as cycloheximide",did not induce significant expression of Bik; also recorded: did not increase Bik protein
COc1cccc2c1C(=O)c1c(O)c3c(c(O)c1C2=O)C[C@@](O)(C(=O)CO)C[C@@H]3O[C@H]1C[C@H](N)[C@H](O)[C@H](C)O1 [Doxorubicin],cell death,MCF10A cells [1],causes cell death comparable to LA
same,apoptosis as assessed by PARP cleavage,MCF10A cells [1],does induce apoptosis
same,Bik protein (Western blotting),Bik protein [2]; [14],did not induce significant expression of Bik; also recorded: do not increase Bik levels; also recorded: did not increase Bik protein
C/C1=C/C(=O)O[C@@H]2C[C@@H](CC[C@H](C)/C=C\C=C\CC1)O[C@@](O)([C@@H]1CSC(=O)N1)C2 [Latrunculin-A],BCRP protein (Western blotting),BCRP protein [3],increases BCRP protein
same,BCRP protein (Western blotting),BCRP protein [4],not
same,Bik protein (Western blotting),Bik protein [5],dramatic increases in Bik protein
same,resistance to LA-induced apoptosis (XTT viability),breast tumor cell lines,highly resistant to LA-induced apoptosis; also recorded: significant resistance to apoptosis
same,Bik protein (Western blotting),Bik protein [6],dramatic increases in Bik protein
same,resistance to apoptosis induced by cell rounding (XTT),[7]; [15],significantly resistant
same,tolerated doses of LA,[7]; cell rounding,≤ 20 µM
same,BCRP protein (Western blotting),BCRP protein [8],increases BCRP protein
same,resistance to apoptosis induced by cell rounding (XTT),[9]; [15],significantly resistant
same,cells remaining viable (XTT),"[9]; LA as high as 20 μM, 24 h",~60%
same,LA concentration at which cell death is maximal,MCF10A cells [10],5 µM
same,cell viability (XTT),"MCF10A cells [10]; LA 24 h, doses as low as 2.5 μM",drops significantly
same,Bik protein (Western blotting),Bik protein [2]; [14],increases; also recorded: did increase Bik significantly
CC(C)C[C@@H](C=O)NC(=O)[C@H](CC(C)C)NC(=O)[C@H](CC(C)C)NC(=O)OCc1ccccc1 [MG132] (Cbz-Leu-Leu-Leu-aldehyde),Bik protein (immunoblot),Bik protein [11],significantly lower levels of Bik protein; also recorded: remained low
same,Bik protein (Western blotting),Bik protein [2]; MG132 5 μM,strong induction of Bik protein; also recorded: strongly upregulated; also recorded: strongly increased
COC(=O)N[C@@H](CCSC)C(=O)Oc1ccc(Nc2nc3c(s2)C(=O)c2ccccc2C3=O)cc1 [YC-137],decrease in cell viability (XTT) compared to YC-137 alone,[7]; 1 μg/ml YC-137 combined with 2.5 μM LA,greater than 2 fold
same,cell viability (XTT) compared to YC-137 alone,"[7]; YC-137 1 μg/ml or 2.5 μg/ml with LA 2.5 μM, 24 h, P<0.05",significant decrease in cell viability
same,doses at which YC-137 causes toxicity on its own,[7]; YC-137 alone,higher than 1 μM
same,effect on rounded versus attached cells,[7]; YC-137 at lower levels,affects rounded cells more than attached cells
same,cell death on combining with cell rounding,"[7]; YC-137 with LA 2.5 μM, 24 h",increases cell death
same,toxicity to attached and rounded cells,MCF10A cells [10],toxic to both attached and rounded MCF10A cells
same,viability (XTT),MCF10A cells [10],lose viability
same,cell death on combining with cell rounding,"MCF10A cells [10]; YC-137 with LA 2.5 μM, 24 h",increases cell death
CCCCNc1ccc(C(=O)OCCN(C)C)cc1 [tetracaine],time to collapse of tubulin microtentacles,[12],approximately 10 minutes
same,toxicity to the cells,MDA-436 cells,non-toxic
BH3I-1,toxicity against cells that lack Bax and Bak,[13],toxic against cells that lack Bax and Bak
"TRAIL: apoptotic stimulus (protein, UniProt P50591 1-281, looked up) Tumor necrosis factor ligand …: MAMMEVQGGPSLGQTCVLIVIFTVLLQSLCVAVTYVYFTNELKQMQDKYSKSGIACFLKEDDSYWDPNDEESMNSPCWQVKWQLRQLVRKMILRTSEETISTVQEKQQNISPLVRERGPQRVAAHITGTRGRSNTLSSPNSKNEKALGRKINSWESSRSGHSFLSNLHLRNGELVIHEKGFYYIYSQTYFRFQEEIKENTKNDKQMVQYIYKYTSYPDPILLMKSARNSCWSKDAEYGLYSIYQGGIFELKENDRIFVSVTNEHLIDMDHEASFFGAFLVG",cell death,MCF10A cells [1],causes cell death comparable to LA
same,apoptosis as assessed by PARP cleavage,MCF10A cells [1],does induce apoptosis
same,Bik protein (Western blotting),Bik protein [2]; [14],did not induce significant expression of Bik; also recorded: do not increase Bik levels; also recorded: did not increase Bik protein
